Reference: ChEMBL document CHEMBL4480443, “Synthesis and biological evaluation of solubilized sulfonamide analogues of the phosphatidylinositol 3-kinase inhibitor ZSTK474” (Bioorg Med Chem, 2019)
Blank lines part the entries; values can stand above or below the compound they belong to.

What was measured:
[1] = 0.25 h
[2] = physchem; details: aqueous medium with DMSO
[3] = physchem; details: buffer

solubility [1]: Insoluble
Compound: COc1cccc2c1nc(C(F)F)n2-c1nc(N2CCOCC2)nc(N2CCN(S(C)(=O)=O)CC2)n1

Compound: COc1cccc2c1nc(C(F)F)n2-c1nc(N2CCOCC2)nc(N2CCN(S(=O)(=O)CCN(C)C)CC2)n1.Cl
solubility at 0.25 h [2]: 24 µg/mL

Compound: COc1cccc2c1nc(C(F)F)n2-c1nc(N2CCOCC2)nc(N2CCN(S(=O)(=O)CCN(C)C)CC2)n1.CS(=O)(=O)O
solubility [3]: > 59 µg/mL
